Measurements taken from patent publication EP1077967B1, “BIPHENYL OXO-ACETIC ACIDS USEFUL IN THE TREATMENT OF INSULIN RESISTANCE AND HYPERGLYCEMIA” (Wyeth, priority 1998, dated 1999).
Counter-ions that a name gives are not always drawn.

Biological target: T1, Human recombinant PTP1B (Homo sapiens, UniProt P18031)
T1 construct: made in house
T1 sequence (P18031 1-435): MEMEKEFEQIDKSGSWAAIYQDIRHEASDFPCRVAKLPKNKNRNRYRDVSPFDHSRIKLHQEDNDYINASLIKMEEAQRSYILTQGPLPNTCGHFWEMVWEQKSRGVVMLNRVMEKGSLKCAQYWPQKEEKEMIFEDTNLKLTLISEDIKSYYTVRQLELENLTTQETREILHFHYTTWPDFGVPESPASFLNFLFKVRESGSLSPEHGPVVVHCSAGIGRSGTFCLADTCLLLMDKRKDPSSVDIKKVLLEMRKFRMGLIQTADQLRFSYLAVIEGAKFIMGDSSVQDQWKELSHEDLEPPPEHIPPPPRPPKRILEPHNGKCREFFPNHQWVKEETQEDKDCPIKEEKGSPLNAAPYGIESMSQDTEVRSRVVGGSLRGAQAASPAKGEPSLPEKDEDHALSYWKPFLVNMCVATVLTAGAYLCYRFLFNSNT
Experiment: Inhibition of tri-phosphorylated insulin receptor dodecaphosphopeptide dephosphorylation by hPTP1B (malachite green)
Type: biochemical
Conditions: not given

Molecule | IC50
O=C(O)[C@@H](Cc1ccccc1)Oc1ccc(-c2ccc(-c3c(Cc4ccccc4)oc4ccccc34)cc2)cc1[N+](=O)[O-] [Example 68, (2R)-2-[4'-(2-Benzyl-benzofuarn-3-yl)-3-nitro-biphenyl-4-yloxy]-3-phenyl-propionic acid] | 231 nM
O=C(c1ccccc1)c1oc2ccccc2c1-c1ccc(-c2ccc(O[C@H](Cc3ccccc3)C(=O)O)c([N+](=O)[O-])c2)cc1 [Example 66, (2R)-2-[4'-(2-Benzoyl-benzofuarn-3-yl)-3-nitro-biphenyl-4-yloxy]-3-phenyl-propionic acid] | 788 nM

Same assay, conditions: compound at 1 uM

Molecule | change of PTP1B activity (percent of phosphatase control)
O=C(O)[C@@H](Cc1ccccc1)Oc1ccc(-c2ccc(-c3nc4cccnc4n3Cc3ccccc3)cc2)cc1 [Example 69, (2R)-2-[4'-(3-Benzyl-3H-imidazol[4,5-b]pyridin-2-yl)-biphenyl-4-yloxy]-3-phenyl-propionic acid sodium salt] | -20 (1 uM)

Same assay, conditions: compound at 2.5 uM; read-out: change of PTP1B activity (percent of phosphatase control)

Molecule | inhibition at 2.5 µM
CC(=O)c1ccc(-c2ccc(-c3ccc(O[C@@H](Cc4ccccc4)C(=O)O)cc3)cc2)s1 [Example 71, (2S)-2-[4'-(5-acetyl-thiophen-2-yl)-biphenyl-4-yloxy]-3-phenyl-propionic acid sodium salt] | 43%
O=C(O)[C@H](Cc1ccccc1)Oc1ccc(-c2ccc(-c3nc4ccccc4n3Cc3ccccc3)cc2)cc1 [Example 70, (2S)-2-[4'-(1-Benzyl-1H-benzimidazol-2-yl)-biphenyl-4-yloxy]-3-phenyl-propionic acid] | 41%

Same assay, conditions: recombinant PTP1B, dodecaphosphopeptide substrate

Molecule | IC50
CCCCCC[C@H](Oc1c(Br)cc(-c2ccc(-c3c(Cc4ccccc4)oc4ccccc34)cc2)cc1Br)C(=O)O [Example 54, (2S)-2-[4'-(2-benzyl-benzofuran-3-yl)-3,5-dibromo-biphenyl-4-yloxy]-octanoic acid] | 23 nM
O=C(O)[C@@H](Cc1ccccc1)Oc1ccc(-c2ccc(-c3c(Cc4ccccn4)sc4ccccc34)cc2)cc1 [Example 32, (2R)-3-phenyl-2-[4'-(2-pyridin-2-ylmethyl-benzo[b]thiophene-3-yl)-biphenyl-4-yloxy]-propionic acid sodium salt] | 1510 nM
O=C(O)C(Cc1ccccc1)Oc1ccc(-c2ccc(-c3c(Cc4ccccc4)sc4ccccc34)cc2)cc1-c1ccc(Cl)cc1 (stereo not drawn) [Example 46, (2R')-2-[4-(2-benzyl-benzo[b]thiophene-3-yl)-4"-chloro-[1,1':3',1"]terphenyl-4'-yloxy]-3-phenyl-propionic acid] | 52 nM
COc1cc(-c2cc(-c3ccc(-c4c(Cc5ccccc5)sc5ccccc45)cc3)ccc2OCC(=O)O)cc(OC)c1OC [Example 61] | 100 nM
CCCCC(Oc1c(Br)cc(-c2ccc(-c3c(Cc4ccccc4)oc4ccccc34)cc2)cc1Br)C(=O)O (stereo not drawn) [Example 52, 2-[4'-(2-benzyl-benzofuran-3-yl)-3,5-dibromo-biphenyl-4-yloxy]-hexanoic acid] | 52 nM
O=C(O)COc1ccc(-c2ccc(-c3c(Cc4ccccc4)sc4ccccc34)cc2)cc1-c1ccccc1 [Example 62] | 105 nM
O=C(O)c1ccc(COc2ccc(-c3ccc(-c4c(Cc5ccccc5)oc5ccccc45)cc3)cc2)cc1 [Example 63, 4-[4'-(2-benzyl-benzofuran-3-yl)-biphenyl-4-yloxymethyl]-benzoic acid] | 369 nM
Cc1cc(-c2ccc(-c3c(Cc4ccccc4)oc4ccccc34)cc2)cc(C)c1O[C@H](Cc1ccccc1)C(=O)O [Example 65, (2R)-2-[4'-(2-Benzyl-benzofuarn-3-yl)-3,5-dimethyl-biphenyl-4-yloxy]-3-phenyl-propionic acid] | 74 nM
COc1ccc(-c2cc(-c3ccc(-c4c(Cc5ccccc5)sc5ccccc45)cc3)ccc2OCC(=O)O)cc1OC [Example 60] | 71 nM
COc1ccc(-c2cc(-c3ccc(-c4c(Cc5ccccc5)sc5ccccc45)cc3)ccc2OCC(=O)O)cc1 [Example 59] | 80 nM
O=C(O)COc1c(Br)cc(-c2ccc(-c3c(Cc4ccccc4)sc4ccccc34)cc2)cc1Br [Example 39, [4'-(2-Benzyl-benzo[b]thiophene-3-yl)-3,5-dibromo-biphenyl-4-yloxy]acetic acid] | 105 nM
CC(C)C[C@@H](Oc1c(Br)cc(-c2ccc(-c3c(Cc4ccccc4)oc4ccccc34)cc2)cc1Br)C(=O)O [Example 51, (2R)-2-[4'-(2-benzyl-benzofuran-3-yl)-3,5-dibromo-biphenyl-4-yloxy]-4-methyl-pentanoic acid] | 54 nM
O=C(O)[C@@H](CCN1C(=O)c2ccccc2C1=O)Oc1c(Br)cc(-c2ccc(-c3c(Cc4ccccc4)sc4ccccc34)cc2)cc1Br [Example 43, (2R)-2-[4'-(2-Benzyl-benzo[b]-thiophen-3-yl)-3,5-dibromo-biphenyl-4-yloxy]-4-(1,3-dioxo-1,3-dihydro-isoindol-2-yl)-butyric acid] | 44 nM
COc1cccc(-c2cc(-c3ccc(-c4c(Cc5ccccc5)sc5ccccc45)cc3)cc(Br)c2OCC(=O)O)c1 [Example 57] | 28 nM
O=C(O)C(Cc1ccccc1)Oc1ccc(-c2ccc(-c3c(Cc4nccs4)sc4ccccc34)cc2)cc1 (stereo not drawn) [Example 30, 3-Phenyl-2-[4'-(2-thiazole-2-ylmethyl-benzo[b]thiophene-3-yl)-biphenyl-4-yloxy]-propionic acid] | 1160 nM
Ammonium molybdate tetrahydrate [reference compound] | 8700 nM

Molecule | IC50
Cc1sc(Cc2ccccc2)c(-c2ccc(-c3ccc(O[C@H](Cc4ccccc4)C(=O)O)cc3)cc2)c1C [Example 64, (2R)-2-[4'-(2-Benzyl-4,5-dimethyl-thiophen-3-yl)-biphenyl-4-yloxy]-3-phenyl-propionic acid] | 512 nM
O=C(O)[C@H](CCc1ccccc1)Oc1ccc(-c2ccc(-c3c(Cc4ccccc4)oc4ccccc34)cc2)cc1 [Example 47, (2S)-2-[4'-(2-benzyl-benzofuran-3-yl)-biphenyl-4-yloxy]-4-phenyl-butyric acid] | 225 nM
COc1cccc(-c2cc(-c3ccc(-c4c(Cc5ccccc5)sc5ccccc45)cc3)cc(-c3cccc(OC)c3)c2OCC(=O)O)c1 [Example 58] | 25 nM
COC(=O)[C@@H](CCNC(=O)c1ccccc1C(=O)O)Oc1c(Br)cc(-c2ccc(-c3c(Cc4ccccc4)sc4ccccc34)cc2)cc1Br [Example 44, N-{(3R)-3-[4'-(2-benzyl-benzo[b]thiophen-3-yl)-3,5-dibromo-biphenyl-4-yloxy]-3-methoxycarbonyl-propyl]-phthalamic acid] | 54 nM
Oc1ccc(-c2ccc(-c3c(Cc4ccccc4)sc4ccccc34)cc2)cc1Br [Example 34, 4'-(2-Benzyl-benzo[b]thiophen-3-yl)-3-bromo-biphenyl-4-ol] | 1070 nM
O=C(O)C(Cc1ccccc1)Oc1ccc(-c2ccc(-c3c(C(O)c4ccccc4)oc4ccccc34)cc2)cc1[N+](=O)[O-] [Example 67, (2R)-2-{4'-[2-(Hydroxy-phenyl-methyl)-benzofuarn-3-yl)-3-nitro-biphenyl-4-yloxy]-3-phenyl-propionic acid] | 103 nM
COc1ccc(-c2cc(-c3ccc(-c4c(Cc5ccccc5)sc5ccccc45)cc3)cc(Br)c2OCC(=O)O)cc1OC [Example 56, [4-(2-benzyl-benzo[b]-thiophen-3-yl)-5'-bromo-3",4"-dimethoxy[1,1';3',1"-terphenyl]-4'-yloxy]-acetic acid] | 47 nM
O=C(O)c1ccccc1C(=O)NCC[C@@H](Oc1c(Br)cc(-c2ccc(-c3c(Cc4ccccc4)sc4ccccc34)cc2)cc1Br)C(=O)O [Example 45, N-{(3R)-3-[4'-(2-benzyl-benzo[b]thiophen-3-yl)-3,5-dibromo-biphenyl-4-yloxy]-3-carboxy-propyl]-phthalamic acid] | 181 nM
Oc1c(Br)cc(-c2ccc(-c3c(Cc4ccccc4)sc4ccccc34)cc2)cc1Br [Example 35, 4'-(2-Benzyl-benzo[b]thiophen-3-yl)-3,5-dibromo-biphenyl-4-ol] | 454 nM
O=C(O)COc1ccc(-c2ccc(-c3c(Cc4ccccc4)sc4ccccc34)cc2)cc1Br [Example 40, [4'-(2-Benzyl-benzo[b]thiophene-3-yl)-3-bromo-biphenyl-4-yloxy]-acetic acid] | 362 nM
O=C(O)[C@H](Cc1ccccc1)Oc1ccc(-c2ccc(-c3c(Cc4ccccc4)oc4cccnc34)cc2)cc1 [Example 31, (2S)-2-[4'-(2-Benzyl-furo[2,3]pyridin-3-yl)-biphenyl-4-yloxy]-3-phenyl-propionic acid] | 590 nM
O=C(O)[C@H](Cc1ccccc1)Oc1c(Br)cc(-c2ccc(-c3c(Cc4ccccc4)oc4ccccc34)cc2)cc1Br [Example 49, (2S)-2-[4'-(2-benzyl-benzofuran-3-yl)-3,5-dibromo-biphenyl-4-yloxy]-3-phenyl-propionic acid] | 38 nM
CC[C@H](Oc1c(Br)cc(-c2ccc(-c3c(Cc4ccccc4)oc4ccccc34)cc2)cc1Br)C(=O)O [Example 53, (2S)-2-[4'-(2-benzyl-benzofuran-3-yl)-3,5-dibromo-biphenyl-4-yloxy]-butyric acid] | 133 nM
O=C(O)[C@H](CCc1ccccc1)Oc1c(Br)cc(-c2ccc(-c3c(Cc4ccccc4)sc4ccccc34)cc2)cc1Br [Example 41, (2S)-2-[4'-(2-Benzyl-benzo[b]-thiophen-3-yl)-3,5-dibromo-biphenyl-4-yloxy]-4-phenyl-butyric acid] | 290 nM
O=C(O)[C@H](Cc1ccccc1)Oc1ccc(-c2ccc(-c3c(Cc4ccccc4)oc4ccccc34)cc2)cc1Br [Example 50, (2S)-2-[4'-(2-benzyl-benzofuran-3-yl)-3-bromo-biphenyl-4-yloxy]-3-phenyl-propionic acid] | 56 nM
